Assay results published in patent US12396992B2, “Organic compounds” (INTRA-CELLULAR THERAPIES, INC., priority 2019, dated 2025).
“Also recorded” adds a separate entry of the source.

Legend:
BV2 cells [1] = experiment: ADP-induced chemotaxis of BV2 cells in Boyden chamber; type: cell-based, mouse; settings: 100 μM ADP, 4 hrs
Protocol: Chemotaxis towards 100 μM ADP was measured in a Boyden chamber system for 4 hrs against a vehicle control. BV2 cells were added to the upper chamber of a 5 μm pore Boyden chamber with 100 μM ADP or vehicle in the lower chamber and incubated at 37′C with 5% CO2 for 4 hours. The curve was fit to a 4-parameter logarithmic equation with the following constraints: top >80% and bottom <20%. […] As shown in the left panel of FIG. 7A, raw fluorescence counts (relative fluorescence units or RFU), representing the cell count in the lower chamber, were used to calculate control conditions. The Vehicle condition represents the minimum migration, in which there was no ADP present. The maximum migration was shown as the 100 μM ADP condition.
The measured potency correlates with documented IC50 values.

P2Y12 = P2Y12 (Homo sapiens, UniProt Q9H244); settings: P2Y12 inhibitors; read-out: documented IC50; cited from earlier work
Chain of P2Y12 (Q9H244 whole entry, species assumed): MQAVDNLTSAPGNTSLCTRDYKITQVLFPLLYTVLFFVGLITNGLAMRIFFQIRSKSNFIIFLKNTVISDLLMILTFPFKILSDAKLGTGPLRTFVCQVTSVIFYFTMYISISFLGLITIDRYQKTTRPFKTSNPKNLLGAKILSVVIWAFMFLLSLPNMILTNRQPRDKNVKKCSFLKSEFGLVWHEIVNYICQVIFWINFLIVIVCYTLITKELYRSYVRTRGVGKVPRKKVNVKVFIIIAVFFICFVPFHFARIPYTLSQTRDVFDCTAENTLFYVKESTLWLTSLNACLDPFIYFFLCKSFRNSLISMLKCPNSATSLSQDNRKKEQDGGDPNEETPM

BV2 cells [2] = experiment: Quantitative PCR of inflammatory cytokine mRNA in LPS-stimulated BV2 cells; type: cell-based, mouse; settings: for LPS-induced expression of Ccl2 / LPS-induced expression of IL1β / LPS-induced expression of TNFα: FIG. 3a; for Chemokine (C—C) motif Ligand 2 expression / Interleukin 1 beta expression / Tumor necrosis factor expression: BV2 + LPS, Q-PCR, initial results
Protocol: Levels of IL1 are measured using quantitative PCR of IL1β mRNA. IL1β is considered a marker of inflammation. Results are depicted in FIG. 2 (RQ: relative quantification of changes in gene expression in treated versus control samples; ***p<0.01 vs control, √p<0.01 vs LPS alone; ANOVA with Newman-Keuls post-hoc test).
BV2 cells are pretreated with compound, ITI-214 or rolipram, a PDE4 inhibitor, then stimulated with 50 ng/ml LPS for 4 hours. Expression levels of TNF, IL1β, Ccl2, and IL6 are measured. Normalized mRNA levels are shown as change from vehicle (ΔΔCt) and compared using a one-way ANOVA. […] The mRNA transcripts for TNF, IL1β, and Ccl2—three of the four cytokines studied in vivo—were elevated in BV2 cells treated with 50 ng/ml LPS.
(§1) The test compound is added first, the LPS is added one hour later, and the cells and/or media are harvested at five hours from commencement of the experiment.
Cells: BV2 mouse microglial cell line (ICLC, Italy) grown in 2% or 10% heat-inactivated FBS.
(§2) RTqPCR: RNA from BV2 cells purified using RNeasyKit (Qiagen) and from mouse tissue using TRIzol (Ambion). TaqMan primer-probe assays from Thermo Fisher. mRNA levels for all conditions are normalized to GAPDH and to vehicle control (ΔΔCt). Data are analyzed statistically using one-way ANOVA with the Bonferroni post-test for multiple comparisons.

BV2 cells [3] = experiment: LPS-induced TNFα release from BV2 cells (ELISA); type: cell-based, mouse; settings: 50 ng/ml LPS stimulation, FIG. 4
Protocol: TNFα release: TNFα levels are measured in BV2 conditioned media and normalized to cell protein levels. Inhibition of LPS-induced TNFα release from BV2 cells is depicted in FIG. 4.
as §1
TNFα ELISA: Thermo Fisher mouse TNFα colorimetric, sandwich ELISA kit. Interpolate values from standard curve. Dose response is fit to a 4-parameter logistic curve.

mouse striatum [4] = experiment: LPS-induced inflammatory gene expression in mouse striatum (Q-PCR); type: in vivo
Protocol: as §2
Data from yet another experiment measuring the effect of PDE1 inhibition on inflammatory gene expression in mouse striatum is depicted in FIG. 6. […] Striatal tissue is analyzed for mRNA levels of TNF, IL1β, Ccl2, and IL6. Expression levels are shown as change in Q-PCR signal from vehicle (ΔΔCt) and compared using an ANOVA. * p<0.05, **p<0.01, ***p<0.001.
The Applicants measure mRNA levels of four common inflammatory markers (TNF, IL1β, Ccl2, and IL6) using quantitative PCR (FIG. 7).

BV2 cells [5] = experiment: cAMP (ELISA) and P-VASP S157 (Western blot) in BV2 cells with ADP; type: cell-based, mouse; settings: for P-VASP level at baseline / cAMP level at baseline: no ADP stimulation
Protocol: Cell lysates on a Western were blotted with an antibody to phosphorylated VASP at S157, and the intensity of the resulting bands were measured (as raw signal). […] There was no effect of PDE1 inhibition at baseline, consistent with the hypothesis that PDE1 is important under conditions of stimulation. […] As with cAMP, PDE1 activity (sensitive to ITI-214) appears to contribute about 50% to the total PDE activity (sensitive to IBMX) under conditions of stimulation while having no contribution at baseline. The dose dependent nature of the increase in cAMP is illustrated in FIG. 9.

[6] = system: primary cultured microglia; experiment: VASP phosphorylation in primary cultured rat microglia; type: cell-based; settings: 1 μM
Protocol: The above results were replicated in primary cultured microglia isolated from P2 rat whole brain (FIG. 10). Microglia were grown in culture for 12 days in serum-free media containing TGFb2, IL34, and cholesterol. The cells maintained properties in culture consistent with quiescent microglial-like cells, staining positive for Iba1 and maintaining a branched morphology.

[7] = system: CT26 colorectal carcinoma cells; experiment: CT26 colorectal carcinoma engrafted subcutaneously in mice; type: in vivo, mouse; settings: for number of macrophages (CD45 positive) in the tumor microenvironment: 50 mg/kg, i.p., once daily
Protocol: Mice were engrafted subcutaneously with CT26 colorectal carcinoma cells. Control mice were administered 150 μg IgG (Isotype).

BV2 cells [8] = experiment: Quantitative PCR of inflammatory cytokine mRNA in LPS-stimulated BV2 cells; type: cell-based, mouse; settings: LPS 10 microgram/ml, Compound 214 10 microgram/ml, FIG. 2
mouse striatum [9] = experiment: LPS-induced inflammatory gene expression in mouse striatum (Q-PCR); type: in vivo; settings: initial results
bovine brain PDE1 = target: T1, bovine brain PDE1 (Bos taurus, UniProt Q01061); experiment: IMAP phosphodiesterase assay, PDE1; type: biochemical
T1 construct: IC50; other: bovine brain PDE1; Ki; other: bovine brain PDE1 assay
T1 sequence (Q01061 whole entry): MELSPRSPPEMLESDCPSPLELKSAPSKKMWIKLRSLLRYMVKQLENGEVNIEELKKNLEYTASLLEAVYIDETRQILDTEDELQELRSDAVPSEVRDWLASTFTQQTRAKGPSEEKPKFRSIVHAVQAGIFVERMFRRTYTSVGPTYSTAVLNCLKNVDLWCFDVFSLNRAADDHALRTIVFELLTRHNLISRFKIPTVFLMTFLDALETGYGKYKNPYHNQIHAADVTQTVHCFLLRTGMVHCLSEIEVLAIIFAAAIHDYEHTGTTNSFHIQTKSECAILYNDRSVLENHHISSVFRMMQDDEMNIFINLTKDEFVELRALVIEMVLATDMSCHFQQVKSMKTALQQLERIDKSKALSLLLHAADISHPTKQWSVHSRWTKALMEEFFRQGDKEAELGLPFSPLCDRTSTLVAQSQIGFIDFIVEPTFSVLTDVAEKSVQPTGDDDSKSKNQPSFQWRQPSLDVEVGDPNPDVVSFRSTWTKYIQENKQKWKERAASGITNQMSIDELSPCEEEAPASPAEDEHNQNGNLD
Description: Briefly, the IMAP reagent binds with high affinity to the free 5′-phosphate that is found in GMP-fluorescein and not in cGMP-fluorescein. The resulting GMP-fluorescein-IMAP complex is large relative to cGMP-fluorescein. Small fluorophores that are bound up in a large, slowly tumbling, complex can be distinguished from unbound fluorophores, because the photons emitted as they fluoresce retain the same polarity as the photons used to excite the fluorescence.
The PDE1 enzyme is reconstituted with 50% glycerol to 2.5 U/ml. […] The compounds are mixed and pre-incubated with the enzyme for 10 min at room temperature.
The reaction is incubated in dark at room temperature for 15 min.

HL60 cells = experiment: cGMP levels in PMA-differentiated HL60 cells with ANP and ionomycin (competitive ELISA); type: cell-based, human
Protocol: We have shown that there is a synergistic effect between ANP and PDE1 inhibition. An immortalized human pro-myeloid cell line (HL60 from ATCC) is grown, differentiated and harvested as described in Bender, A T, and Beavo, J A, 2006, PNAS 103, 460-465. The cells are grown in HEPES buffered RPMI 1640 medium with penicillin, streptomycin, and 10% fetal bovine serum. Phorbol-12-myristate-13-acetate (PMA), at 100 nM for 3 days, is used to differentiate the HL60 cells into macrophage-like cells. Following differentiation, the cells are incubated with a PDE1 inhibitor or vehicle (DMSO) beginning at time 0. At 40 minutes, 5 μM ionomycin (a calcium ionophore) is added. At 50 minutes, 100 nM ANP was added. At 60 minutes, the cells are harvested. Total cGMP levels are measured using a competitive ELISA (Bender and Beavo, 2006).
[drawing 33] is tested for its effect on cGMP levels in this system. […] In addition, the cGMP level attained by co-treatment with ANP and the PDE1 inhibitor is much greater than that obtained by co-treatment with ANP and a mixed PDE1/PDE5 inhibitor, SCH 51866 (used at 5 μM). In this experiment, the calcium ionophore ionomycin (used at 5 μM) is used to raise the intracellular calcium level and to counteract the cGMP rise induced by ANP.

[10] = 10 μM, 50 ng/ml LPS for 4 hours, FIG. 3b
[11] = 10 mg/kg i.p., 500 μg/kg LPS s.c., 2 hours
[12] = 10 mg/kg i.p., 500 μg/kg LPS s.c., 2 hours, does not reach significance
[13] = Striatum Mouse + LPS, Q-PCR, initial results

CCCSc1nc(N)c2ncn([C@@H]3O[C@H](COP(=O)(O)OP(=O)(O)C(F)(F)P(=O)(O)O)[C@@H](O)[C@H]3O)c2n1 [AR-C 66096, reference compound]
chemotaxis of BV2 cells toward ADP (BV2 cells [1]): inhibited ADP induced migration
IC50 (P2Y12): 6.9 nM

CSCCNc1nc(SCCC(F)(F)F)nc2c1ncn2[C@@H]1O[C@H](COP(=O)(O)OP(=O)(O)C(Cl)(Cl)P(=O)(O)O)[C@@H](O)[C@H]1O [AR-C 69931, reference compound]
chemotaxis of BV2 cells toward ADP (BV2 cells [1]): inhibited ADP induced migration

CN1C(=O)c2c(nn(Cc3ccc(-c4cccc(F)n4)cc3)c2Nc2ccccc2)N2C1=N[C@@H]1CCC[C@@H]12 [Compound 214]
Ccl2 mRNA signal (BV2 cells [2]; [10]): significantly decreased
IL1β mRNA signal (BV2 cells [2]; [10]): trended downward
TNF mRNA signal (BV2 cells [2]; [10]): significantly decreased
LPS-induced expression of Ccl2 (BV2 cells [2]; 10 μM): significantly reduces
LPS-induced expression of IL1β (BV2 cells [2]; 10 μM): significantly reduces
LPS-induced expression of TNFα (BV2 cells [2]; 10 μM): significantly reduces
Chemokine (C—C) motif Ligand 2 expression (BV2 cells [2]): Down
Interleukin 1 beta expression (BV2 cells [2]): Down
Tumor necrosis factor expression (BV2 cells [2]): Down
LPS-induced TNFα release (BV2 cells [3]): dose-dependent inhibition
striatal mRNA expression of Ccl2 (mouse striatum [4]; [11]): attenuates
striatal mRNA expression of TNF (mouse striatum [4]; [11]): attenuates
LPS-induced inflammatory gene expression changes in mice (mouse striatum [4]; 10 mg/kg i.p., 500 μg/kg LPS s.c., 2 hours, FIG. 6): prevents
striatal mRNA level of IL1-beta (mouse striatum [4]; [12]): trended to lower levels
striatal mRNA level of IL6 (mouse striatum [4]; [12]): trended to lower levels
Chemokine (C—C) motif Ligand 2 expression (mouse striatum [4]; [13]): Down
chemotaxis of BV2 cells toward ADP (BV2 cells [1]): inhibits
chemotaxis of BV2 cells toward ADP (BV2 cells [1]; listed as compound 214): reduced chemotaxis of BV2 cells toward 100 μM ADP in a dose-dependent manner
ADP-induced elevation in cAMP (BV2 cells [5]; 30 min pretreatment, ADP for 5 minutes, ELISA): significantly augmented
ADP-induced P-VASP at serine 157 (BV2 cells [5]; 30 min pretreatment, ADP for 5 minutes, Western blot): significantly augmented
P-VASP level at baseline (BV2 cells [5]): no effect
cAMP level at baseline (BV2 cells [5]): no effect
VASP phosphorylation under basal conditions [6]: little effect
increase in VASP phosphorylation after ADP ([6]; 100 μM ADP for 5 mins): significantly enhanced
percentage of responders (tumor volume <500 mm3) ([7]; 1 mg, 5 days a week starting at day 7, alone): increase
number of macrophages (CD45 positive) in the tumor microenvironment ([7]; alone): significantly reduced
number of macrophages (CD45 positive) in the tumor microenvironment ([7]; in combination with an anti-PD1 antibody): significantly reduced
percentage of responders (tumor volume <500 mm3) ([7]; in combination with 150 μg Anti-PD-1 (RMP1-14) on days 7, 11, 14, 17): increase
LPS-induced increase in expression of IL1β mRNA (BV2 cells [8]): significantly blunts; also recorded: suppresses
Oncostatin M expression (mouse striatum [9]): Down

CN1C(=O)c2c(nn(Cc3ccc(C(F)(F)F)cc3)c2Nc2ccccc2)N2C1=N[C@@H]1CCC[C@@H]12 [Example 20 of U.S. Pat. No. 8,273,750, (6aR,9aS)-3-(phenylamino)-5,6a,7,8,9,9a-hexahydro-5-methyl-2-(4-(trifluoromethyl)-benzyl)-cyclopent[4,5]imidazo[1,2-a]pyrazolo[4,3-e]pyrimidin-4(2H)-one]
Ki (bovine brain PDE1): 0.68 nM
cGMP level induced in HL60 cells (HL60 cells; 100 nM ANP + 100 nM PDE1 inhibitor, compared with ANP alone or inhibitor alone): greater than that induced by either the ANP alone or the PDE1 inhibitor alone
effect of ionomycin on cGMP (HL60 cells; 5 μM ionomycin combined with ANP and the PDE1 inhibitor): only a weak cGMP lowering effect
cGMP level attained by co-treatment with ANP (HL60 cells; compared with co-treatment with ANP and SCH 51866 (5 μM)): much greater

CC(C)Cn1c(=O)n(C)c(=O)c2[nH]cnc21 [IBMX, reference compound]
P-VASP level at baseline (BV2 cells [5]): did elevate
cAMP level at baseline (BV2 cells [5]): did elevate

COc1ccc(C2CNC(=O)C2)cc1OC1CCCC1 (centres unmarked) [rolipram, reference compound]
LPS-induced expression of Ccl2 (BV2 cells [2]; 10 μM): reducing
LPS-induced expression of IL1β (BV2 cells [2]; 10 μM): increasing
LPS-induced expression of TNFα (BV2 cells [2]; 10 μM): reducing
Chemokine (C—C) motif Ligand 2 expression (BV2 cells [2]): Down
Interleukin 1 beta expression (BV2 cells [2]): UP UP
Tumor necrosis factor expression (BV2 cells [2]): Down
Chemokine (C—C) motif Ligand 2 expression (mouse striatum [4]; [13]): Down
Interleukin 1 beta expression (mouse striatum [4]; [13]): UP-UP
Interleukin 6 expression (mouse striatum [4]; [13]): UP-UP
Tumor necrosis factor expression (mouse striatum [4]; [13]): Down
Oncostatin M expression (mouse striatum [9]): Down
